Each structure is given as a SMILES string.

Series [1] deals with E. faecalis biofilm. The experiment in a line: Uptake of photosensitizers by E. faecalis biofilm. The series is classed as cell-based, E. faecalis (ATCC 29212). The note with it: 15 min incubation, 7 day old biofilm. As for the experimental part: The uptake of Rose Bengal, methylene blue and chitosan polymer-Rose Bengal nanoparticles was evaluated on biofilm forms of E. faecalis. A seven day old biofilm of E. faecalis (ATCC 29212) was grown in 24 multi-well plates. 1 mL of overnight E. faecalis culture was added into each well of the multi-well plates and incubated at 37° C., 100 rpm. Fresh media was replenished every 48 hours to provide a constant supply of nutrients and to remove dead bacterial cells. On the eighth day, the media was removed from the wells, and the biofilm was carefully washed once with sterile deionized-water. Different concentrations of chitosan polymer-Rose Bengal nanoparticles (0.3, 0.5 & 1 mg/mL) and MB and Rose Bengal (10, 25, 50 & […]) were added to the biofilm and incubated at 37° C. for 15 min, protected from ambient light. Three samples were used for each concentration. Excess photosensitizer solutions were removed leaving behind the bound Rose Bengal, MB and chitosan polymer-Rose Bengal nanoparticles in biofilm and washed once. The biofilm bacteria were treated with 1 mL of 2% SDS for 20 h in order to extract the cell-bound photosensitizers. The biofilms were disrupted and collected in eppendorf tubes. The biofilm bacteria were centrifuged (3000 rpm, 10 min) and the supernatant solution was taken for photosensitizer quantification. Quantification of photosensitizer was done spectrophotometrically (Epoch, Biotek, USA) at the absorption maxima of the Rose Bengal (540 nm). Calibration curves were constructed for each Rose Bengal in 2% SDS. Uptake values were obtained as the total Rose Bengal and MB concentrations (μM) extracted from both the 1 mL of planktonic and biofilm bacteria.

In series [2] the test system is NIH 3T3 mouse fibroblast cells. As to the kind of experiment: Cytotoxicity, MTT assay with and without photodynamic therapy. The series is classed as cell-based. As for the experimental part:
To evaluate cytotoxicity approximately 1×10^5 NIH 3T3 mouse fibroblast cells (American Type Culture Collection CCL 1, Rockville, Md.) were seeded into 24 well plates in Dulbecco's Modified Eagle medium (DMEM) supplemented with 10% Bovine Serum and antibiotics and incubated for 48 hrs in 5% CO2 incubator (Thermo Electron Corporation, USA). After incubation, chitosan polymer-Rose Bengal nanoparticles and Rose Bengal dissolved in DMEM were added into the cells and incubated for 15 min in dark. The cells were irradiated with a white light source and a 540 nm fiber (Lumacare Inc) for a total dose of 20 J/cm^2. Rose Bengal and chitosan polymer-Rose Bengal nanoparticles were also tested without irradiation. […]
The supernatant media was removed without disturbing the cell line, and the cell layer was washed with 1 mL of phosphate-buffered saline. Cell survival was determined by the standard 3-(4, 5-dimethylthiazol-2-yl)-2, 5-diphenyltetrazolium bromide (MTT) assay (Sigma Aldrich) that determines the mitochondrial activity. […] The absorbance at 540 nm was measured photometrically by using a UV-visible spectrophotometer (Epoch, Biotek, USA). Percentage survival was calculated based on control sample without any treatment as 100%. All analyses were repeated three times in triplicate, and the statistical significance was analyzed by one-way analysis of variance.

Series [3] has as its system E. faecalis biofilm. The experiment in a line: Antibacterial efficacy on 7-days old biofilm (CFU count). The series is classed as cell-based, E. faecalis (ATCC 29212). As for the experimental part:
In order to test the antibacterial-efficacy of nanoparticulates on bacterial-biofilm, 7-days old biofilm of E. faecalis (ATCC 29212) was grown in well of multiwell-plates as mentioned above. On the eighth day, the media was removed from the wells, and the biofilm was carefully washed once with sterile deionized-water. The biofilm-bacteria was treated with chitosan polymer-Rose Bengal nanoparticles and Rose Bengal and exposed to photodynamic therapy with different doses. Sensitization was done using 1 mL of Rose Bengal (10 μM) and chitosan polymer-Rose Bengal nanoparticles (0.1 & 0.3 mg/mL) at 37° C. for 15 min, protected from ambient light. Subsequently, the excess photosensitizer solutions were removed leaving behind the bound chitosan polymer-Rose Bengal nanoparticles and Rose Bengal. Dark toxicity was evaluated after sensitization period with the two treatment solutions. In case of photodynamic therapy, the sensitized biofilm-bacteria were irradiated using a 540 nm fiber with dosage of 20, 40 and 60 J/cm^2; and fractionated dosage of 10 and 20 J/cm^2 twice. After treatment, the biofilms were washed gently and 1 mL of sterile deionized-water was added. […] Colonies were counted after 24 hours of incubation at 37° C. and expressed as log colony forming units (CFU) per mL. The experiments were carried out in triplicates and the mean values were calculated.

Series [4] has as its system E. faecalis biofilm. As to the kind of experiment: Biofilm structure by confocal laser scanning microscopy. In kind it is cell-based, E. faecalis (ATCC 29212). As for the experimental part: The structure of the 7-days old biofilm following treatment with nanoparticulates was assessed using confocal-laser-scanning-microscopy (CLSM). E. faecalis (ATCC 29212) biofilm was grown on a glass bottom culture dishes. Following treatment with Rose Bengal (10 μM) and chitosan polymer-Rose Bengal nanoparticles (0.3 mg/mL) the as mentioned above, biofilms were washed with 1 mL of sterile deionized-water. The biofilms were then stained with 200 μL, of Live/Dead® Baclight™ stain (Molecular Probes, Eugene, Oreg.) and incubated in the dark for 10 minutes. The biofilm-structures were then viewed under spinning disk confocal-laser-scanning microscopy (Olympus, Japan). Kr/Ar laser was the source of illumination with 488 nm excitation and long-pass 500-523 nm and 622-722 nm emission filter settings for green and red signals respectively. Nine different areas were imaged from each sample using a 60× oil objective. The optical sections of the biofilm-structure were first recorded then subsequently analyzed using Velocity® software. Student t-test was used to compare the thickness of the biofilm before and after nanoparticulates treatment.

The test system of series [5] is planktonic E. faecalis. The experiment in a line: Antibacterial efficacy on planktonic bacteria (CFU count). In kind it is cell-based, E. faecalis (ATCC 29212). The settings on record: 540 nm, 15 min sensitization. As for the experimental part: E. faecalis (ATCC 29212) was used to test the antibacterial efficacy of Rose Bengal and chitosan polymer-Rose Bengal nanoparticles in both planktonic and biofilm forms. Planktonic cell pellets (10^9 cells/mL) were obtained and the cell pellets treated with 1 mL of Rose Bengal (10 μM) and chitosan polymer-Rose Bengal nanoparticles (0.1 & 0.3 mg/mL), at 37° C. for 15 min, in the manner previously described and protected from ambient light to allow sensitization. Dark toxicity was evaluated after 15 min of sensitization with the two treatment solutions. In the case of photodynamic therapy, the photosensitizer solutions were removed leaving a thin smear at the bottom of the eppendorf tubes. The sensitized planktonic-bacteria were irradiated using a 540 nm fiber with doses of 2 and 5 J/cm^2. After treatment, cell pellets were resuspended in sterile deionized-water (1 mL) and 100 μL of the suspension was plated in freshly poured BHI agar plates after serial dilution. Colonies were counted after 24 hours of incubation at 37° C. and expressed as log colony forming units (CFU) per mL.

The test system of series [6] is planktonic E. faecalis. As to the kind of experiment: Membrane integrity of planktonic bacteria (release of cell constituents, OD260). The series is classed as cell-based, E. faecalis (ATCC 29212). The settings on record: following photodynamic therapy, 5 J/cm^2, 540 nm. As for the experimental part:
Leakage of cytoplasmic contents (DNA) is a characteristic indication of damage to the bacterial cytoplasmic membrane. Absorbance at 260 nm was used to estimate the amount of intracellular contents leaked from bacteria subjected to different photosensitizers and photodynamic therapy. E. faecalis (ATCC 29212) was incubated overnight at 37° C. under agitation in the Brain-Heart Infusion (BHI) medium (Sigma, USA). The culture was centrifuged (4000 rpm, 10 min, 4° C.), supernatants discarded and washed twice in sterile deionized water (DIW). The cells were resuspended in deionized water and adjusted to 10^7 CFU/mL (optical density 0.7) at 600 nm. The cell suspension (1 mL) was then added into eppendorf tubes and centrifuged. The supernatants were discarded and the cell pellets were treated with different photosensitizer solutions and maintained at 37° C. for 15 min, protected from ambient light. The kinetics of release of intracellular contents, treated bacterial cells were filtered (0.2 μm pore size, Pall) and absorbance of the filtrate recorded at 260 nm (OD260). For photodynamic therapy, the photosensitized cells were centrifuged and cell pellets irradiated (5 J/cm^2, 540 nm). The % change in OD260 at 15 min post sensitization and after irradiation with 5 J/cm^2 was calculated with respect to the OD260 of the sample measured at 0 min.

Take `CN(C)c1ccc2nc3ccc(=[N+](C)C)cc-3sc2c1` [MB, methylene blue]: the “Biofilm E. faecalis photosensitizer uptake/mL of cells” value with E. faecalis biofilm [1] (photosensitizer 10 μM) amounted to 0.96 ± 0.07 µM; in the series on E. faecalis biofilm [1] (photosensitizer 25 μM), 1.75 ± 0.21 µM; in the series with E. faecalis biofilm [1] (photosensitizer 50 μM), 3.15 ± 0.16 µM; with E. faecalis biofilm [1] (photosensitizer 100 μM), 5.07 ± 0.19 µM.
`O=C1OC2(c3cc(I)c(O)c(I)c3Oc3c2cc(I)c(O)c3I)c2c(Cl)c(Cl)c(Cl)c(Cl)c21` [RB, Rose Bengal]: the “cell survival after photodynamic therapy” value in series [2] (NIH 3T3, 540 nm, 20 J/cm^2) is “further reduction of cell survival”. Also, the dark toxicity result in series [2] (NIH 3T3, 15 min exposure, no irradiation) is “higher dark toxicity”. In the series on E. faecalis biofilm [3] (fractionated photodynamic therapy, CSRBnp 0.3 mg/mL, Rose Bengal 10 μM), the “elimination of biofilm bacteria” value is “not with Rose Bengal”. In addition, the killing of biofilm-bacteria result in the series on E. faecalis biofilm [3] (photodynamic therapy at 60 J/cm^2) is on record as “did not show complete killing”. In addition, the biofilm architecture result in the series on E. faecalis biofilm [4] (after PD treatment (irradiation)) is “not disrupted”. In addition, the thickness of the biofilm in the series on E. faecalis biofilm [4] (after PD treatment, Rose Bengal 10 μM, CSRBnp 0.3 mg/mL, untreated 39.2±7.3) worked out at 21.5 ± 9.57 µm. Besides, the “light dose giving complete planktonic bacterial killing” value with planktonic E. faecalis [5] was determined as 5 J/cm^2. The “release of cell constituents (absorbance at 260 nm)” value with planktonic E. faecalis [6] is listed as “increased absorbance at 260 nm”. Besides, the “Biofilm E. faecalis photosensitizer uptake/mL of cells” value with E. faecalis biofilm [1] (photosensitizer 10 μM) was found to be 2.72 ± 0.15 µM; in the series on E. faecalis biofilm [1] (photosensitizer 25 μM), 2.80 ± 0.09 µM; in the series with E. faecalis biofilm [1] (photosensitizer 50 μM), 3.01 ± 0.11 µM; in the series with E. faecalis biofilm [1] (photosensitizer 100 μM) it was 3.68 ± 0.17 µM.

For the origin of these results see patent US11737955B2, “Multi-functional micro and nanoparticles for use in root canal therapies” (THE GOVERNING COUNCIL OF THE UNIVERSITY OF TORONTO, priority 2012, dated 2023).
